Experimental data taken from the supplement of paper PMC10307832.

Legend:
Experiment in all cases: relative viability (nuclei count vs DMSO), 5 days (fraction); higher = more cells survive
BX 795 = compound: O=C(NCCCNc1nc(Nc2cccc(NC(=O)N3CCCC3)c2)ncc1I)c1cccs1 [BX 795]
Outline: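 Viability is treated-well nuclei as a fraction of vehicle-well nuclei, reported as the median across plates. Before counting, lung cancer cell lines were kept overnight at 37 °C in 1536-well plates, pinned with five √10-spaced library-drug doses on vehicle-anchored plates, and left 5 days without medium change, then fixed, permeabilised and Hoechst-stained in one step, imaged at 4× and counted by MetaXpress. A plate passed only if control CV was below 25% and at least one doubling occurred.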

BX 795 + Linsitinib = compound: O=C(NCCCNc1nc(Nc2cccc(NC(=O)N3CCCC3)c2)ncc1I)c1cccs1 [BX 795] + C[C@]1(O)C[C@@H](c2nc(-c3ccc4ccc(-c5ccccc5)nc4c3)c3c(N)nccn32)C1 [Linsitinib] (partner 1 µM)
Outline: (§1)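 Each reported value is a median over duplicate plates. It expresses relative viability: treated-well nuclei count divided by vehicle-well nuclei count. Lung cancer cell lines in 1536-well plates were dosed by pin tool a day after seeding, alone with one drug or with a fixed anchor-drug dose plus five library-drug doses (not always all listed) in √10 steps, and nuclei were counted after 5 days.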

BX 795 + AZD7762 = compound: O=C(NCCCNc1nc(Nc2cccc(NC(=O)N3CCCC3)c2)ncc1I)c1cccs1 [BX 795] + NC(=O)Nc1cc(-c2cccc(F)c2)sc1C(=O)N[C@H]1CCCNC1 [AZD7762] (partner 0.2 µM)
Outline: as §1

BX 795 + Tozasertib = compound: O=C(NCCCNc1nc(Nc2cccc(NC(=O)N3CCCC3)c2)ncc1I)c1cccs1 [BX 795] + Cc1cc(Nc2cc(N3CCN(C)CC3)nc(Sc3ccc(NC(=O)C4CC4)cc3)n2)n[nH]1 [Tozasertib] (partner 0.1 µM)
Outline: as §1

BX 795 + OSI-027 = compound: O=C(NCCCNc1nc(Nc2cccc(NC(=O)N3CCCC3)c2)ncc1I)c1cccs1 [BX 795] + COc1cccc2cc(-c3nc([C@H]4CC[C@H](C(=O)O)CC4)n4ncnc(N)c34)[nH]c12 [OSI-027] (partner 0.5 µM)
Outline: as §1

| Cell Line | relative viability (BX 795; 0.04 µM) | relative viability (BX 795; 0.1265 µM) | relative viability (BX 795; 0.4 µM) | relative viability (BX 795; 1.265 µM) | relative viability (BX 795 + Linsitinib; first compound 0.04 µM) | relative viability (BX 795 + Linsitinib; first compound 0.1265 µM) | relative viability (BX 795 + Linsitinib; first compound 0.4 µM) | relative viability (BX 795 + Linsitinib; first compound 1.265 µM) | relative viability (BX 795 + AZD7762; first compound 0.04 µM) | relative viability (BX 795 + AZD7762; first compound 0.1265 µM) | relative viability (BX 795 + AZD7762; first compound 0.4 µM) | relative viability (BX 795 + AZD7762; first compound 1.265 µM) | relative viability (BX 795 + Tozasertib; first compound 0.04 µM) | relative viability (BX 795 + Tozasertib; first compound 0.1265 µM) | relative viability (BX 795 + Tozasertib; first compound 0.4 µM) | relative viability (BX 795 + Tozasertib; first compound 1.265 µM) | relative viability (BX 795 + OSI-027; first compound 0.04 µM) | relative viability (BX 795 + OSI-027; first compound 0.1265 µM) | relative viability (BX 795 + OSI-027; first compound 0.4 µM) | relative viability (BX 795 + OSI-027; first compound 1.265 µM) |
| --- | --- | --- | --- | --- | --- | --- | --- | --- | --- | --- | --- | --- | --- | --- | --- | --- | --- | --- | --- | --- |
| HCC-366 | 1.02 | 1.02 | 0.944 | 0.945 | 0.469 | 0.727 | 0.257 | 0.3 | 0.228 | 0.227 | 0.19 | 0.306 | 0.228 | 0.0924 | 0.0936 | 0.0708 | 1.08 | 0.881 | 0.644 | 0.444 |
| HCC-827 | 1 | 1.02 | 1.04 | 1.01 | 0.972 | 0.849 | 0.987 | 0.75 | 0.206 | 0.224 | 0.211 | 0.221 | 0.416 | 0.45 | 0.429 | 0.417 | 0.839 | 0.81 | 0.933 | 0.763 |
| HOP-62 | 0.963 | 1.06 | 1.21 | 1 | 0.915 | 1.02 | 1.2 | 0.525 | 0.602 | 0.715 | 0.672 | 0.528 | 0.381 | 0.441 | 0.361 | 0.275 | 0.833 | 0.917 | 0.84 | 0.768 |
| IA-LM | 1.02 | 1.03 | 1.12 | 0.86 | 0.615 | 0.452 | 0.769 | 0.626 | – | – | – | – | – | – | – | – | – | – | – | – |
| LC-2-ad | 1.04 | 0.924 | 0.912 | 0.661 | 0.83 | 0.715 | 0.637 | 0.351 | 0.806 | 0.808 | 0.795 | 0.858 | 0.611 | 0.475 | 0.419 | 0.384 | 0.841 | 0.767 | 0.867 | 0.658 |
| NCI-H520 | 0.99 | 1.04 | 0.869 | 0.733 | 0.746 | 1.06 | 0.859 | 0.359 | – | – | – | – | 0.44 | 0.447 | 0.421 | 0.401 | 0.226 | 0.255 | 0.19 | 0.201 |
| NCI-H661 | 1.09 | 0.994 | 1.03 | 1.04 | 0.615 | 0.641 | 0.34 | 0.433 | – | – | – | – | 0.374 | 0.369 | 0.378 | 0.412 | 0.514 | 0.688 | 0.554 | 0.511 |
| NCI-H1563 | 1.08 | 0.942 | 1.03 | 0.814 | 1.36 | 1.23 | 1.3 | 0.905 | – | – | – | – | – | – | – | – | 0.782 | 0.749 | 0.821 | 0.67 |
| NCI-H1650 | 0.915 | 1.05 | 0.8 | 0.778 | – | – | – | – | – | – | – | – | 0.548 | 0.425 | 0.377 | 0.25 | 0.687 | 0.703 | 0.53 | 0.414 |
